Assays:
[1] = test system: iPS cell-derived cardiomyocytes; experiment: Viability of cardiomyocytes after treatment with the TAOK1 inhibitor and doxorubicin (PrestoBlue); format: cell-based, human; conditions: C43 final concentration 10 nM, added simultaneously with doxorubicin; measured 3 days later; FIG. 4
Protocol: The iPS cell-derived cardiomyocytes were seeded on the 96-well plate coated with the growth factor reduced matrigel, after 5 days or more from the seeding, the TAOK1 inhibitor C43 (MedChemExpress) and the doxorubicin were simultaneously added, and 3 days later, the cell viability was measured with SpectraMaxM2e using the PrestoBlue reagent.

[2] = test system: iPS cell-derived cardiomyocytes; experiment: Oxygen consumption measurement (Seahorse XF Cell Mito Stress Test); format: cell-based, human; conditions: doxorubicin 1 μM for 3 hours vs 0 μM; FIG. 7
Protocol: TAOK1 knock-out cells were obtained from the iPS cell-derived cardiomyocytes in a similar manner as in Test Example 2-1. The obtained cells were treated with the doxorubicin at 0 μM or 1 μM for 3 hours, and oxygen consumption was measured using a Seahorse XFe 96 Flux Analyzer (Agilent) and a Seahorse XF Cell Mito Stress Test Kit (Agilent).

oxygen consumption of the cardiomyocytes [2]	Compound	cell viability (myocardial cell death caused by the doxorubicin) [1]
–	O=C(CNC(=O)c1ccc(-c2ccccc2)cc1)NC1CCCc2ccccc21 (centres unmarked) [Entry C43, N-[2-oxo-2-(1,2,3,4-tetrahydronaphthalen-1-ylamino)ethyl]biphenyl 4-carboxamide]	inhibit the myocardial cell death caused by the doxorubicin
significantly reduced	COc1cccc2c1C(=O)c1c(O)c3c(c(O)c1C2=O)C[C@@](O)(C(=O)CO)C[C@@H]3O[C@H]1C[C@H](N)[C@H](O)[C@H](C)O1 [doxorubicin]	–
